{
  "source": "patent EP4803523A1",
  "about": "“FUSED HETEROARYL COMPOUND, PREPARATION METHOD THEREFOR, AND USE THEREOF IN MEDICINE” (Jiangsu Hengrui Pharmaceuticals Co., Ltd., priority 2023, dated 2025)",
  "key": {"[1]": {"assay": "in vivo", "details": "both, SD, rat, plasma, po", "method": "Using SD rats as the test animals, the plasma concentrations of the example compounds at different time points were determined by LC-MS/MS following oral gavage (i.g.) administration. The pharmacokinetic behaviours of the compounds of the present disclosure in rats were investigated, and their pharmacokinetic profiles were evaluated.\nBlood samples (0.2 mL) were collected from the orbit before administration and at 0.25, 0.5, 1.0, 2.0, 4.0, 6.0, 8.0, 11.0, and 24.0 hours after administration. The samples were placed in EDTA-K2 anticoagulant tubes, centrifuged at 10,000 rpm for 2 minute (4°C), and the plasma was separated within 1 hour and stored at -20°C or -80°C until analysis. The entire process from blood collection to centrifugation was performed in ice bath conditions.\nThe mixture was vortexed and then centrifuged at 4000 rpm for 15 minutes; the supernatant was taken for LC-MS/MS analysis. […] The mixture was vortexed and then centrifuged at 3700 rpm for 10 minutes; the supernatant was taken for LC-MS/MS analysis.\nThe mixture was vortexed and then centrifuged at 4000 rpm for 15 minutes; the supernatant was taken for LC-MS/MS analysis. […] The mixture was vortexed and then centrifuged at 4000 rpm for 15 minutes; the supernatant was taken for LC-MS/MS analysis."}, "[2]": {"tested_on": "GP2d", "assay": "3D cell proliferation inhibition assay (CellTiter-Glo 3D)", "type": "cell-based", "details": "GP2d, 120 h, GP2d cells, KRAS G12D, 3D culture, 5 days with compound", "procedure": "(§1) This experiment uses the cells listed in the table below to evaluate the inhibitory effects of the compounds on the proliferation of KRAS mutant or KRAS amplified cells.\n(§2) On the first day of the experiment, cells that were growing well and had reached 70%-80% confluence were digested, resuspended in culture medium, and the cell density was adjusted to the desired level. In a U-shaped low-attachment 96-well plate (Corning, 7007), 90 µL of cell suspension was added per well, with the cell density as shown in the table above. The cell plate was centrifuged at 2500 rpm for 5 minutes and then placed in an incubator for 24 hours of culture. On the second day, the 20 mM test compound dissolved in DMSO was diluted with DMSO to the first concentration of 2 or 0.2 mM, and then serially diluted in a 5-fold gradient to obtain 9 concentration points, with the control well containing DMSO. The serially diluted compound was then further diluted 20-fold with culture medium. 10 µL of the test compound diluted in culture medium was added to each well of the cell plate. The final concentrations of the compound were 9 points in a 5-fold serial dilution starting from 10 or 1 µM. Cell wells containing 0.5% DMSO were set as vehicle control wells, and wells containing only culture medium and 0.5% DMSO were set as blank control wells. The cell plate was centrifuged at 2000 rpm for 3 minutes and then placed in an incubator for 5 days of culture. On the seventh day, the 96-well cell culture plate was taken out, and 50 µL of the luminescent cell viability detection reagent, CellTiter-Glo® 3D Cell Viability Assay (Promega, G9683), was added to each well. After shaking at room temperature for 25 minutes, the mixture was pipetted up and down to mix, and 100 µL was transferred from each well to a white, opaque-bottom OptiPlate™-96 well plate (PerkinElmer, 6005290). The luminescence signal value was read using a multimode microplate reader (PerkinElmer, EnVision2105).\n(§3) The inhibition rate was calculated using the following formula: Inhibition rate = (Luminescence value vehicle control well - Luminescence value test compound)/(Luminescence value vehicle control well - Luminescence value blank control well) × 100%. The IC50 values of the compound inhibitory activity were calculated using Graphpad Prism software. Table 1. Data of inhibitory activity on 3D cell proliferation (unit: nM)"}, "[3]": {"tested_on": "AsPC-1", "assay": "3D cell proliferation inhibition assay (CellTiter-Glo 3D)", "type": "cell-based", "details": "Homo sapiens, ASPC1, 120 h; AsPC-1 cells, KRAS G12D, 3D culture, 5 days with compound", "procedure": "as §1, §2, §3"}, "[4]": {"tested_on": "AGS", "assay": "3D cell proliferation inhibition assay (CellTiter-Glo 3D)", "type": "cell-based", "details": "Homo sapiens, 120 h; AGS cells, KRAS G12D, 3D culture, 5 days with compound", "procedure": "as §1, §2, §3"}, "[5]": {"assay": "Pharmacokinetic evaluation, mouse experiment (oral gavage, plasma LC-MS/MS)", "type": "in vivo", "details": "balb/c nude mice, female, oral gavage (i.g.), 20.0 mg/kg", "procedure": "Using balb/c nude mice as the test animals, the plasma concentrations of the example compounds at different time points were determined by LC-MS/MS following oral gavage (i.g.) administration. The pharmacokinetic behaviours of the compounds of the present disclosure in mice were investigated, and their pharmacokinetic profiles were evaluated.\nNine balb/c nude mice, female, were provided by Beijing Vital River Laboratory Animal Technology Co., Ltd. (Production License Number: SCXK(Zhejiang) 2024-0001).\nA given amount of the test compound was weighed and formulated with 5% DMF + 45% PG + 50% (10% HS15-pH7.4 buffer) to prepare a 2.0 mg/mL clear and colourless solution.\nThe administration dose was 20.0 mg/kg, and the administration volume was 10 mL/kg.\nBlood samples (0.1 ml) were collected from the orbit before administration and at 0.25, 0.5, 1.0, 2.0, 4.0, 6.0, 8.0, 11.0, and 24.0 hours after administration. The samples were placed in EDTA-K2 anticoagulant tubes, centrifuged at 10,000 rpm for 1 minute (4°C), and the plasma was separated within 1 hour and stored at -20°C or -80°C until analysis. The entire process from blood collection to centrifugation was performed in ice bath conditions. Food was provided 2 hours after administration.\nThe concentration of the test compound in mouse plasma after administration was determined as follows: 20 µL of the plasma sample collected at each time point after administration was taken, and 200 µL of internal standard acetonitrile solution (containing 20 ng/mL verapamil) was added. The mixture was vortexed and then centrifuged at 4000 rpm for 15 minutes; the supernatant was taken for LC-MS/MS analysis."}},
  "data": [
    {"compound": "C[C@@H](O)CN1CC2CCC(C1)N2c1nc(OCC2(CN3CCC(=C(F)F)CC3)CC2)nc2c(F)c(-c3ncc(F)c4sc(N)c(C#N)c34)c3c(c12)COC3", "note": "[Example 2, 2-amino-4-(3-((1-((4-(difluoromethylene)piperidin-1-yl)methyl)cyclopropyl)methoxy)-5-fluoro-1-(3-((R)-2-hydroxypropyl)-3,8-diazabicyclo[3.2.1]oct-8-yl)-7,9-dihydrofuro[3,4-f]quinazolin-6-yl)-7-fluorothieno[3,2-c]pyridine-3-carbonitrile]", "values": [
      {"measurement": "AUC(0-t)", "setting": "[1]; 20 mg/kg", "value": 5170, "unit": "ng·h/mL"},
      {"measurement": "CL/F", "setting": "[1]; 20 mg/kg", "value": 65.5, "unit": "mL/min/kg"},
      {"measurement": "Cmax", "setting": "[1]; 20 mg/kg", "value": 377, "unit": "ng/mL"},
      {"measurement": "Vd/F", "setting": "[1]; 20 mg/kg", "value": 28, "unit": "L/kg"},
      {"measurement": "half-life", "setting": "[1]; 20 mg/kg", "value": 5.52, "unit": "h"},
      {"measurement": "AUC(0-t)", "setting": "[1]; 40 mg/kg", "value": 17600, "unit": "ng·h/mL"},
      {"measurement": "CL/F", "setting": "[1]; 40 mg/kg", "value": 36.7, "unit": "mL/min/kg"},
      {"measurement": "Cmax", "setting": "[1]; 40 mg/kg", "value": 1170, "unit": "ng/mL"},
      {"measurement": "Vd/F", "setting": "[1]; 40 mg/kg", "value": 19.6, "unit": "L/kg"},
      {"measurement": "half-life", "setting": "[1]; 40 mg/kg", "value": 6.7, "unit": "h"},
      {"measurement": "IC50", "setting": "[2]", "value": 1.79, "unit": "nM"},
      {"measurement": "IC50", "setting": "[3]", "value": 6.18, "unit": "nM"},
      {"measurement": "IC50", "setting": "[4]", "value": 2.36, "unit": "nM"},
      {"measurement": "Vd/F", "setting": "[5]; read-out: Apparent volume of distribution Vz/F", "value": 9.07, "unit": "L/kg"},
      {"measurement": "AUC(0-t)", "setting": "[5]; read-out: Area under the curve AUC0-t", "value": 9100, "unit": "ng·h/mL"},
      {"measurement": "CL/F", "setting": "[5]; read-out: Clearance CL/F", "value": 36.5, "unit": "mL/min/kg"},
      {"measurement": "half-life", "setting": "[5]; read-out: Half life T1/2 (converted)", "value": 2.87, "unit": "h"},
      {"measurement": "Cmax", "setting": "[5]; read-out: Plasma concentration Cmax", "value": 1060, "unit": "ng/mL"}
    ]}
  ]
}
